# Data from ChEMBL document CHEMBL4376853, “Synthesis and structure-activity relationship studies of α-naphthoflavone derivatives as CYP1B1 inhibitors” (Eur J Med Chem, 2020).
# Columns and labels:
# [1] = target: T1, Cytochrome P450 1B1 (Homo sapiens, UniProt Q16678); assay: Inhibition of human recombinant CYP1B1 using 7-ethoxyresorufin as substrate in presence of glucose-6-phosphate, glucose-6-phosphate dehydrogenase and NADPH-generating system incubated for 35 mins by fluorometry
# T1 sequence (Q16678 whole entry): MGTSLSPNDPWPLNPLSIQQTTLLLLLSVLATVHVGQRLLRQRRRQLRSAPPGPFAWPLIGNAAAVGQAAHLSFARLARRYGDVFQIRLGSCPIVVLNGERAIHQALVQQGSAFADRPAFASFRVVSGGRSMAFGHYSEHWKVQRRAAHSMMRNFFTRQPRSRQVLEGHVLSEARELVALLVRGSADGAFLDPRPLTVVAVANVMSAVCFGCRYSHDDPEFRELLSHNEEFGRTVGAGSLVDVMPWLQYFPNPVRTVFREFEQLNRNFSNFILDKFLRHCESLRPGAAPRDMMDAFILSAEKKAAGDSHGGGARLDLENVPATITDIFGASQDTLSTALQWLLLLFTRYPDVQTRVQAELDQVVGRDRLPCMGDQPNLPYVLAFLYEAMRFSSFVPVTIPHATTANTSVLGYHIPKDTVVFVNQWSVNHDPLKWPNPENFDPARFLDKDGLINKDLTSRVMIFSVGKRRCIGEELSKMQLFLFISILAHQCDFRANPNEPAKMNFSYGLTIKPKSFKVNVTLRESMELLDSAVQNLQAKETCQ
# [2] = target: T2, Cytochrome P450 1A1 (Homo sapiens, UniProt P04798); assay: Inhibition of human recombinant CYP1A1 using 7-ethoxyresorufin as substrate in presence of glucose-6-phosphate, glucose-6-phosphate dehydrogenase and NADPH-generating system incubated for 15 mins by fluorometry; type: ADME
# T2 sequence (P04798 whole entry): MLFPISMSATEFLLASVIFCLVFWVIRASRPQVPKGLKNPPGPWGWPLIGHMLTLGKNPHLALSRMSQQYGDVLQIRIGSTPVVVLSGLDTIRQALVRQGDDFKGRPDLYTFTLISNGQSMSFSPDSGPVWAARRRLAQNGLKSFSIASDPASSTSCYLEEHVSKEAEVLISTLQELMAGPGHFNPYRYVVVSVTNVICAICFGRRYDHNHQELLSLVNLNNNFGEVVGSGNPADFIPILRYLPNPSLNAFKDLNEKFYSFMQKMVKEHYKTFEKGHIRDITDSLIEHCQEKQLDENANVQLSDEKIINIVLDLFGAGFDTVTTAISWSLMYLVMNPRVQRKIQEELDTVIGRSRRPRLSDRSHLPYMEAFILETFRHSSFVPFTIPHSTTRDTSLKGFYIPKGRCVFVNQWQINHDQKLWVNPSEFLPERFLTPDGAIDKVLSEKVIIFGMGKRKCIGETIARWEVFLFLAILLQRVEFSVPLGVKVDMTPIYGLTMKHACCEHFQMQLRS
# [3] = target: T3, Cytochrome P450 1A2 (Homo sapiens, UniProt P05177); assay: Inhibition of human recombinant CYP1A2 using 7-ethoxyresorufin as substrate in presence of glucose-6-phosphate, glucose-6-phosphate dehydrogenase and NADPH-generating system incubated for 50 mins by fluorometry; type: ADME
# T3 sequence (P05177 whole entry): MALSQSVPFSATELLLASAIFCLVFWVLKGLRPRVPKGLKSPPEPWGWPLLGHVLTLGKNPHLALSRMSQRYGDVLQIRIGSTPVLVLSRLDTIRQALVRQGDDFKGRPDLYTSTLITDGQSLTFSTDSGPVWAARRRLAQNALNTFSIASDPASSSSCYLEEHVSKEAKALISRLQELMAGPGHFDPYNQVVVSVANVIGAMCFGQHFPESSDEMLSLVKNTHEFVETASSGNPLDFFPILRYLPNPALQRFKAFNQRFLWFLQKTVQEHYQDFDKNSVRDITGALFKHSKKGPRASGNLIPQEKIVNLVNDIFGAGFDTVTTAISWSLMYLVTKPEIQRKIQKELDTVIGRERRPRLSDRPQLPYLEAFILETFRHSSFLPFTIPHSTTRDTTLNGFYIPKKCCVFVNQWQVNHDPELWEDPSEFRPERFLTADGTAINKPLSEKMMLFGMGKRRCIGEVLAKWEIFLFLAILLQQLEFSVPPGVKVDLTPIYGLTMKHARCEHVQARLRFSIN
# [4] = organism: Homo sapiens; assay: Selectivity index, ratio of IC50 for human recombinant CYP1A1 to IC50 for human recombinant CYP1B1 using 7-ethoxyresorufin as substrate in presence of glucose-6-phosphate, glucose-6-phosphate dehydrogenase and NADPH-generating system by fluorometry
# [5] = organism: Homo sapiens; assay: Selectivity index, ratio of IC50 for human recombinant CYP1A2 to IC50 for human recombinant CYP1B1 using 7-ethoxyresorufin as substrate in presence of glucose-6-phosphate, glucose-6-phosphate dehydrogenase and NADPH-generating system by fluorometry
# [6] = target: T1, Cytochrome P450 1B1; assay: Potency index, ratio of IC50 for ANF to IC50 for test compound for inhibition of human recombinant CYP1B1 using 7-ethoxyresorufin as substrate in presence of glucose-6-phosphate, glucose-6-phosphate dehydrogenase and NADPH-generating system incubated for 35 mins by fluorometry; details: for selectivity ratio at 35 min: read-out: Ratio IC50
# [7] = Aqueous solubility of the compound; type: physicochemical; details: buffer
IC50 [1] [nM],IC50 [2] [nM],IC50 [3] [nM],Ratio IC50 [4],Ratio IC50 [5],solubility [7] [mg/mL],Compound,selectivity ratio at 35 min [6],relative potency vs ANF (IC50 ratio) at 35 min [6]
0.52,16.7,94.2,32.1,181,–,O=c1cc(-c2cccc(C(F)(F)F)c2)oc2c1ccc1ccccc12,11.3,–
2,30.9,318,15.5,159,–,O=c1cc(-c2cccc(N3CCOCC3)c2)oc2c1ccc1ccccc12,3,–
0.49,5.2,73.6,10.6,150,–,O=c1cc(-c2cccc(Cl)c2)oc2c1ccc1ccccc12,–,12
63.8,153,> 1000,2.4,–,> 20,CN1CCN(c2ccc(-c3cc(=O)c4ccc5ccccc5c4o3)cc2)CC1,–,–
